The text below walks through data of ChEMBL document CHEMBL5614400, “Emerging therapeutics: The imidazo[1,2-b]pyridazine scaffold as a novel drug candidate for eumycetoma, a neglected tropical disease” (Eur J Med Chem, 2024).

In brackets after ≈: the same amount, converted by molar mass. Activity calls are given as the source filed them. The calls are words filed in the database; no cut-off is given here. Some results are limits rather than exact numbers.

Data set [1] concerns Madurella mycetomatis. Nature of the data set: Antifungal activity against Madurella mycetomatis MM55 at 100 uM by XTT assay. It counts as functional, organism-based.
The subject of data set [2] is Madurella mycetomatis. Nature of the data set: Antifungal activity against Madurella mycetomatis MM55 at 25 uM by XTT assay. The class given is functional, organism-based. (Formazan colour is commonly taken as a measure of viable cells.)
Data set [3] concerns Madurella mycetomatis. Nature of the data set: Antifungal activity against Madurella mycetomatis MM55 by XTT assay. It counts as functional, organism-based.
The subject of data set [4] is Madurella mycetomatis. The data set can be described thus: Antifungal activity against Madurella mycetomatis SO1 by XTT assay. It counts as functional.
Data set [5] relates to Madurella mycetomatis. The data set can be described thus: Antifungal activity against Madurella mycetomatis I1 by XTT assay. The class given is functional.
The subject of data set [6] is Madurella mycetomatis. The data set can be described thus: Antifungal activity against Madurella mycetomatis I3 by XTT assay. It counts as functional.
Data set [7] concerns Madurella mycetomatis. The data set can be described thus: Antifungal activity against Madurella mycetomatis I11 by XTT assay. The class given is functional.
Data set [8] deals with Madurella mycetomatis. The data set can be described thus: Antifungal activity against Madurella mycetomatis P1 by XTT assay. It counts as functional.
In data set [9] the test system is Madurella mycetomatis. The data set can be described thus: Antifungal activity against Madurella mycetomatis Peru72012 by XTT assay. It counts as functional.
Data set [10] concerns Madurella mycetomatis. The data set can be described thus: Antifungal activity against Madurella mycetomatis AL1 by XTT assay. The class given is functional.
Data set [11] has as its system Madurella mycetomatis. The data set can be described thus: Antifungal activity against Madurella mycetomatis CBS247.48 by XTT assay. The class given is functional.
For data set [12], the system named is Madurella mycetomatis. Nature of the data set: Antifungal activity against Madurella mycetomatis MM50 by XTT assay. The class given is functional.
A short description of data set [13]: Cytotoxicity against mouse NIH3T3 cells incubated for 5 days by MTT assay. It counts as toxicity, cell-based.
Data set [14] can be described thus: Selectivity index, ratio of IC50 for mouse NIH3T3 cells to IC50 for Madurella mycetomatis MM55. The class given is toxicity. The conditions noted are these: read-out: Ratio IC50.

For the compound `CN1CCN(c2cc(-c3ccccc3)c3nc(-c4ccc(F)cc4)cn3n2)CC1`, the outcome in the data set on Madurella mycetomatis [1] and in the data set on Madurella mycetomatis [2] was inactive.
Consider `CN1CCN(c2cc(-c3cnn(C)c3)c3nc(-c4ccc(F)cc4)cn3n2)CC1` [listing 1 of 2 here], for which the result with Madurella mycetomatis [1] and in the data set on Madurella mycetomatis [2] was Active.
Consider `CN1CCN(c2cc(Br)c3nc(-c4ccc(F)cc4)cn3n2)CC1`, for which the result in the data set on Madurella mycetomatis [1] and in the data set with Madurella mycetomatis [2] was inactive.
In general, IC50 refers to the concentration that inhibits the measured activity by half. Turning to `CN1CCN(c2cc(-c3cccnc3)c3nc(-c4cccc(F)c4)cn3n2)CC1`, the outcome in the data set on Madurella mycetomatis [1] and in the data set with Madurella mycetomatis [2] was Active. In addition, the IC50 with Madurella mycetomatis [3] (Madurella mycetomatis, MM55) was found to be 11.7 µM.
With `CN1CCN(c2cc(-c3ccncc3)c3nc(-c4ccc(F)cc4)cn3n2)CC1`, the result in the data set with Madurella mycetomatis [1] was Active. Also, in the data set on Madurella mycetomatis [2], the result was inactive.
As to `CN1CCN(c2cc(-c3cccnc3)c3nc(-c4ccc(F)cc4)cn3n2)CC1`, the result with Madurella mycetomatis [1] and in the data set on Madurella mycetomatis [2] was Active. Also, the IC50 with Madurella mycetomatis [3] (Madurella mycetomatis, MM55) is more than 16 µM.
The term MIC denotes the least concentration at which growth counts as inhibited. In turn, `CN1CCN(c2cc(-c3cnc(N4CCN(C)CC4)nc3)c3nc(-c4ccccc4)cn3n2)CC1` gave an IC50 with Madurella mycetomatis [3] (Madurella mycetomatis, MM55) of 2 µM. In addition, the MIC is 2 µM (≈ 0.939 µg/mL) with Madurella mycetomatis [3] (Madurella mycetomatis, MM55); 16 µM (≈ 7.51 µg/mL) against Madurella mycetomatis [4]; 8 µM (≈ 3.76 µg/mL) in the data set with Madurella mycetomatis [5]; 8 µM (≈ 3.76 µg/mL) against Madurella mycetomatis [6]; 8 µM (≈ 3.76 µg/mL) in the data set with Madurella mycetomatis [7]; 8 µM (≈ 3.76 µg/mL) in the data set on Madurella mycetomatis [8]. Also, the MIC against Madurella mycetomatis [9], in the data set on Madurella mycetomatis [10], against Madurella mycetomatis [11] and in the data set with Madurella mycetomatis [12] was 8 µM (≈ 3.76 µg/mL) throughout. The IC50 at 5 days in data set [13] worked out at 14.3 µM. Further, the selectivity ratio in data set [14] was 16.
Take `CN1CCN(c2cc(-c3cccc4[nH]ccc34)c3nc(-c4ccccc4)cn3n2)CC1`: the outcome in the data set with Madurella mycetomatis [1] and in the data set on Madurella mycetomatis [2] was Active.
For `CN1CCN(c2cc(-c3ccnn3C)c3nc(-c4ccc(F)cc4)cn3n2)CC1`, the outcome in the data set on Madurella mycetomatis [1] was Active. Besides, the outcome in the data set with Madurella mycetomatis [2] was inactive.
For the compound `CN1CCN(c2cc(-c3ccoc3)c3nc(-c4ccc(F)cc4)cn3n2)CC1`, in the data set on Madurella mycetomatis [1], the result was Active. In addition, the outcome with Madurella mycetomatis [2] was inactive.
`CN1CCN(c2cc(-c3cnc(N4CCN(C)CC4)nc3)c3nc(-c4cccc(F)c4)cn3n2)CC1` displayed an IC50 in the data set with Madurella mycetomatis [3] (Madurella mycetomatis, MM55) of 4.7 µM. The MIC in the data set with Madurella mycetomatis [3] (Madurella mycetomatis, MM55) was determined as 8 µM (≈ 3.9 µg/mL); with Madurella mycetomatis [4], 4 µM (≈ 1.95 µg/mL); with Madurella mycetomatis [5], 4 µM (≈ 1.95 µg/mL); in the data set on Madurella mycetomatis [6], 4 µM (≈ 1.95 µg/mL); against Madurella mycetomatis [7] it was 4 µM (≈ 1.95 µg/mL); in the data set on Madurella mycetomatis [8], 4 µM (≈ 1.95 µg/mL). Moreover, the MIC in the data set on Madurella mycetomatis [9] came to 4 µM (≈ 1.95 µg/mL); in the data set with Madurella mycetomatis [10] it was 4 µM (≈ 1.95 µg/mL); in the data set on Madurella mycetomatis [11], 2 µM (≈ 0.975 µg/mL); with Madurella mycetomatis [12] it was 4 µM (≈ 1.95 µg/mL). This compound showed an IC50 at 5 days in data set [13] of 10.5 µM. In addition, the selectivity ratio in data set [14] worked out at 5.5.
Take `CN1CCN(c2cc(-c3cccc4[nH]ccc34)c3nc(-c4ccc(F)cc4)cn3n2)CC1`: the outcome in the data set on Madurella mycetomatis [1] and in the data set on Madurella mycetomatis [2] was Active.
Regarding `CN1CCN(c2cc(-c3cnn(C)c3)c3nc(-c4ccc(F)cc4)cn3n2)CC1` [listing 2 of 2 here], the IC50 in the data set with Madurella mycetomatis [3] came out at 3.8 µM. Also, the MIC against Madurella mycetomatis [3] (Madurella mycetomatis, MM55) was more than 16 µM; against Madurella mycetomatis [4], more than 16 µM; with Madurella mycetomatis [5], 16 µM (≈ 6.26 µg/mL); in the data set on Madurella mycetomatis [6], more than 16 µM; in the data set on Madurella mycetomatis [7], more than 16 µM; with Madurella mycetomatis [8], 16 µM (≈ 6.26 µg/mL). Further, the MIC is more than 16 µM with Madurella mycetomatis [9], more than 16 µM against Madurella mycetomatis [10], 16 µM (≈ 6.26 µg/mL) in the data set on Madurella mycetomatis [11] and more than 16 µM in the data set on Madurella mycetomatis [12]. Half-maximal inhibition in data set [13] (IC50 at 5 days) was put at 9 µM. Also, the selectivity ratio in [14] came out at 3.1.
For `CN1CCN(c2cc(-c3cccnc3)c3nc(-c4ccccc4F)cn3n2)CC1`, the outcome with Madurella mycetomatis [1] and in the data set on Madurella mycetomatis [2] was Active. In the data set on Madurella mycetomatis [3] (Madurella mycetomatis, MM55), this compound had an IC50 of 11.5 µM.
With `CN1CCN(c2cc(-c3ccsc3)c3nc(-c4ccc(F)cc4)cn3n2)CC1`, the result with Madurella mycetomatis [1] and in the data set on Madurella mycetomatis [2] was Active.
